Experimental data taken from patent US12384800B2, “Antitumoral compounds” (priority 2017, dated 2025).

Columns and labels:
MDA-MB-231 tumors = test: Human breast xenograft, tumor volume
Experimental: (§7) Female athymic nu/nu mice (Harlan Laboratories Models, S.L. Barcelona, Spain or Envigo, Spain) were utilized for all experiments. Animal were housed in individually ventilated cages Sealsafe® Plus, Techniplast S.P.A.), up to ten per cage on a 12-hour light-dark cycle at 21-23° C. and 40-60% humidity. […] Animals were acclimated for at least 5 days prior to tumor implantation with a tumor cell suspension.
MDA-MB-231 cells were maintained in vitro at 37° C. with 5% CO2 in Dulbecco's Modified Eagle's Medium (Sigma-Aldrich, Co). Culture cells were passaged every 3 to 5 days upon reaching confluence.
(§8) Treatment tolerability was assessed by monitoring body weight evolution, clinical signs of systemic toxicity, as well as evidences of local damage in the injection site.
(§9) In Xenograft Studies with Other Cell Lines: • Tumor volume was calculated using the equation (a·b^2)/2, where a: length (longest diameter) and b: width (shortest diameter) were measured in mm by using digital caliper (Fowler Sylvac, S235PAT).
(§10) Treatments producing >20% lethality and/or 20% net body weight loss were considered toxic.

A2780 tumors = test: Human ovarian xenograft, tumor volume
Experimental: as §7
Culture cells were passaged every 3 to 5 days upon reaching confluence. Each animal was subcutaneously implanted (on the right flank using 26G needle and a 1 cc syringe) at 4-6 weeks of age with 10×10^6 A2780 cells suspended in 0.05 mL of a solution consisting of 50% Matrigel® (Corning Incorporated Life Sciences) and 50% medium without serum or antibiotics.
as §8, §9, §10

HGC27 tumors = test: Human gastric xenograft, tumor volume
Experimental: as §7
HGC27 cells were maintained in vitro at 37° C. with 5% CO2 in Iscove's Modified Dulbecco's Medium (Sigma Aldrich, Co). Culture cells were passage every 3 to 5 days on reaching confluence. Each animal was subcutaneously implanted (on the right flank using 26G needle and a 1 cc syringe) at 4-6 weeks of age with 5×10^6 HGC-27 cells suspended in 0.05 mL of a solution consisting of 50% Matrigel® (Corning Incorporated Life Sciences), 50% medium without serum or antibiotics.
as §8, §9, §10

H460 tumors = test: Human lung (NSCLC) xenograft, tumor volume
HT1080 tumors = test: Human fibrosarcoma xenograft, total diameter (tumor + leg)
[1] = test system: A549 cells (lung carcinoma, NSCLC); test: cells; conditions: A549, SRB; for GI50: 72 hours treatment; for TGI: total cell growth inhibition; for TGI / CC50: 72 hours; for CC50: read-out: LC50, 50% net cell killing
Excerpt: (§1) The aim of this assay is to evaluate the in vitro cytostatic (ability to delay or arrest tumor cell growth) or cytotoxic (ability to kill tumor cells) activity of the samples being tested.
(§2) A colorimetric assay, using sulforhodamine B (SRB) reaction has been adapted to provide a quantitative measurement of cell growth and viability (following the technique described by Skehan et al. J. Natl. Cancer Inst. 1990, 82, 1107-1112). Another colorimetric assay based on 3-(4,5-Dimethylthiazol-2-yl)-2,5-diphenyltetrazolium bromide (MTT) reduction to a purple formazan has been also used to assess the antiproliferative activity (following the technique described by Mosmann et al. J. Immunol. Meth. 1983, 65, 55-63).
(§3) These forms of assays employ 96-well cell culture microplates following the standards of the American National Standards Institute and the Society for Laboratory Automation and Screening (ANSI SLAS 1-2004 (R2012) Oct. 12, 2011. All the cell lines used in this study were obtained from the American Type Culture Collection (ATCC) and derive from different types of human cancer.
(§4) A549, HT29, MDA-MB-231 and PSN1 cells were maintained in Dulbecco's Modified Eagle Medium (DMEM) while PC-3 and 22Rv1 cells were maintained in Roswell Park Memorial Institute Medium (RPMI). All cell lines were supplemented with 10% Fetal Bovine Serum (FBS), 2 mM L-glutamine, 100 U/mL penicillin, and 100 […] at 37° C., 5% CO2 and 98% humidity. For the experiments, cells were harvested from subconfluent cultures using trypsinization and resuspended in fresh medium before counting and plating.
(§5) A549, HT29, MDA-MB-231 and PSN1 cells were seeded in 96 well microtiter plates, at 5000 cells per well in aliquots of 150 μL, and allowed to attach to the plate surface for 18 hours (overnight) in drug free medium. After that, one control (untreated) plate of each cell line was fixed (as described below) and used for time zero reference value. Culture plates were then treated with test compounds (50 μL aliquots of 4× stock solutions in complete culture medium plus 4% DMSO) using ten ⅖ serial dilutions (concentrations ranging from 10 to 0.003 μg/mL) and triplicate cultures (1% final concentration in DMSO). After 72 hours treatment, the antitumor effect was measured by using the SRB methodology: Briefly, cells were washed twice with PBS, fixed for 15 min in 1% glutaraldehyde solution at room temperature, rinsed twice in PBS, and stained in 0.4% SRB solution for 30 min at room temperature. Cells were then rinsed several times with 1% acetic acid solution and air-dried at room temperature.
(§6) Effects on cell growth and survival were estimated by applying the NCI algorithm (Boyd M R and Paull K D. Drug Dev. Res. 1995, 34, 91-104). The values obtained in triplicate cultures were fitted by nonlinear regression to a four-parameters logistic curve by nonlinear regression analysis.

[2] = test system: HT29 cells (colorectal adenocarcinoma); test: cells; conditions: HT29, SRB; for GI50: 72 hours treatment; for TGI: total cell growth inhibition; for TGI / CC50: 72 hours; for CC50: read-out: LC50, 50% net cell killing
Excerpt: as §1, §2, §3, §4, §5, §6

[3] = test system: MDA-MB-231 cells (breast adenocarcinoma); test: cells; conditions: MDA-MB-231, SRB; for GI50: 72 hours treatment; for TGI: total cell growth inhibition; for TGI / CC50: 72 hours; for CC50: read-out: LC50, 50% net cell killing
Excerpt: as §1, §2, §3, §4, §5, §6

[4] = test system: PSN1 cells (pancreas adenocarcinoma); test: cells; conditions: PSN1, SRB; for GI50: 72 hours treatment; for TGI: total cell growth inhibition; for TGI / CC50: 72 hours; for CC50: read-out: LC50, 50% net cell killing
Excerpt: as §1, §2, §3, §4, §5, §6

## COc1c(C)cc2c(c1O)[C@@H]1[C@@H]3[C@@H]4SC[C@]5(N[C@@H](CN)Cc6c5[nH]c5ccccc65)C(=O)OC[C@@H](c5c6c(c(C)c(OC(C)=O)c54)OCO6)N3[C@@H](O)[C@H](C2)N1C [Compound 12-R]
MDA-MB-231 tumors; Day 2
  Median Tumor Volume: 223.0 mm^3
MDA-MB-231 tumors; Day 5
  Median Tumor Volume: 296.1 mm^3
MDA-MB-231 tumors; Day 7
  Median Tumor Volume: 378.3 mm^3
MDA-MB-231 tumors; Day 9
  Median Tumor Volume: 472.7 mm^3
MDA-MB-231 tumors; Day 12
  Median Tumor Volume: 609.9 mm^3
MDA-MB-231 tumors; Day 14
  Median Tumor Volume: 782.5 mm^3
MDA-MB-231 tumors; Day 16
  Median Tumor Volume: 972.4 mm^3
MDA-MB-231 tumors; Day 19
  Median Tumor Volume: 1211.0 mm^3
MDA-MB-231 tumors; Day 21
  Median Tumor Volume: 1463.4 mm^3
MDA-MB-231 tumors; Day 23
  Median Tumor Volume: 1756.5 mm^3
MDA-MB-231 tumors; Day 26
  Median Tumor Volume: 2028.6 mm^3
A2780 tumors; Day 2
  Median Tumor Volume: 302.8 mm^3
A2780 tumors; Day 5
  Median Tumor Volume: 786.5 mm^3
A2780 tumors; Day 7
  Median Tumor Volume: 1113.3 mm^3
A2780 tumors; Day 9
  Median Tumor Volume: 1490.6 mm^3
A2780 tumors; Day 12
  Median Tumor Volume: 2025.00 mm^3
A2780 tumors; Day 14
  Median Tumor Volume: 2025.00 mm^3
HGC27 tumors; Day 2
  Median Tumor Volume: 413.3 mm^3
HGC27 tumors; Day 5
  Median Tumor Volume: 809.1 mm^3
HGC27 tumors; Day 7
  Median Tumor Volume: 1261.5 mm^3
HGC27 tumors; Day 9
  Median Tumor Volume: 1589.5 mm^3
HGC27 tumors; Day 12
  Median Tumor Volume: 2017.9 mm^3
HGC27 tumors; Day 14
  Median Tumor Volume: 2034.9 mm^3
H460 tumors; Day 2
  Median Tumor Volume: 410.7 mm^3
H460 tumors; Day 5
  Median Tumor Volume: 796.7 mm^3
H460 tumors; Day 7
  Median Tumor Volume: 1167.9 mm^3
H460 tumors; Day 9
  Median Tumor Volume: 1360.3 mm^3
H460 tumors; Day 12
  Median Tumor Volume: 1666.0 mm^3
H460 tumors; Day 14
  Median Tumor Volume: 2025.0 mm^3
HT1080 tumors; Day 2
  Total diameter (tumor + leg): 8.9 mm
HT1080 tumors; Day 5
  Total diameter (tumor + leg): 8.8 mm
HT1080 tumors; Day 7
  Total diameter (tumor + leg): 9.5 mm
HT1080 tumors; Day 9
  Total diameter (tumor + leg): 9.5 mm
HT1080 tumors; Day 12
  Total diameter (tumor + leg): 11.0 mm
HT1080 tumors; Day 14
  Total diameter (tumor + leg): 11.7 mm
HT1080 tumors; Day 16
  Total diameter (tumor + leg): 12.9 mm
HT1080 tumors; Day 19
  Total diameter (tumor + leg): 13.5 mm
HT1080 tumors; Day 21
  Total diameter (tumor + leg): 15.5 mm
HT1080 tumors; Day 23
  Total diameter (tumor + leg): 18.0 mm

## COc1ccc2[nH]c3c(c2c1)C[C@H](C(=O)O)N[C@]31CS[C@@H]2c3c(OC(C)=O)c(C)c4c(c3[C@H](COC1=O)N1[C@@H]2[C@H]2c3c(cc(C)c(OC)c3O)C[C@@H]([C@@H]1C#N)N2C)OCO4 [Compound 28-R, reference compound]
[1]
  GI50: 167 nM
  TGI: 3.58E−07 Molar
  CC50: > 1190 nM
[2]
  GI50: 31 nM
  TGI: 3.34E−08 Molar
  CC50: > 1190 nM
[3]
  GI50: 19.1 nM
  TGI: 3.22E−08 Molar
  CC50: 91.9 nM
[4]
  GI50: 21.5 nM
  TGI: 3.58E−08 Molar
  CC50: 66.8 nM

## COc1ccc2[nH]c3c(c2c1)C[C@@H](C(=O)O)N[C@]31CS[C@@H]2c3c(OC(C)=O)c(C)c4c(c3[C@H](COC1=O)N1[C@@H]2[C@H]2c3c(cc(C)c(OC)c3O)C[C@@H]([C@@H]1C#N)N2C)OCO4 [Compound 28-S, reference compound]
[1]
  GI50: 489 nM
  TGI: >1.19E−06 Molar
  CC50: > 1190 nM
[2]
  GI50: 251 nM
  TGI: 3.46E−07 Molar
  CC50: 633 nM
[3]
  GI50: 167 nM
  TGI: 2.51E−07 Molar
  CC50: 394 nM
[4]
  GI50: 251 nM
  TGI: 3.94E−07 Molar
  CC50: 692 nM

## COc1c(C)cc2c(c1O)[C@@H]1[C@@H]3[C@@H]4SC[C@]5(NCCc6c5oc5ccccc65)C(=O)OC[C@@H](c5c6c(c(C)c(OC(C)=O)c54)OCO6)N3[C@@H](C#N)[C@H](C2)N1C [Compound 31]
[1]
  GI50: 19.6 nM
  TGI: 2.09E−08 Molar
  CC50: 23.5 nM
[2]
  GI50: 10.5 nM
  TGI: 1.57E−08 Molar
  CC50: > 131 nM
[3]
  GI50: 8.89 nM
  TGI: 1.70E−08 Molar
  CC50: 35.3 nM
[4]
  GI50: 6.8 nM
  TGI: 1.57E−08 Molar
  CC50: 43.1 nM

## COc1ccc2oc3c(c2c1)CCN[C@]31CS[C@@H]2c3c(OC(C)=O)c(C)c4c(c3[C@H](COC1=O)N1[C@@H]2[C@H]2c3c(cc(C)c(OC)c3O)C[C@@H]([C@@H]1C#N)N2C)OCO4 [Compound 34]
[1]
  GI50: 59.1 nM
  TGI: 8.05E−08 Molar
  CC50: > 126 nM
[2]
  GI50: 54.1 nM
  TGI: 8.55E−08 Molar
  CC50: 125 nM
[3]
  GI50: 45.3 nM
  TGI: 7.67E−08 Molar
  CC50: 112 nM
[4]
  GI50: 54.1 nM
  TGI: 5.91E−08 Molar
  CC50: > 126 nM

## COc1c(C)cc2c(c1O)[C@@H]1[C@@H]3[C@@H]4SC[C@]5(N[C@@H](CO)Cc6c5oc5ccccc65)C(=O)OC[C@@H](c5c6c(c(C)c(OC(C)=O)c54)OCO6)N3[C@@H](C#N)[C@H](C2)N1C [Compound 38-R]
[1]
  GI50: 0.654 nM
  TGI: 1.04E−09 Molar
  CC50: > 126 nM
[2]
  GI50: 0.541 nM
  TGI: 5.91E−10 Molar
  CC50: > 126 nM
[3]
  GI50: 0.453 nM
  TGI: 8.43E−10 Molar
  CC50: 2.01 nM
[4]
  GI50: 0.654 nM
  TGI: 9.94E−10 Molar
  CC50: 1.76 nM

## COc1c(C)cc2c(c1O)[C@@H]1[C@@H]3[C@@H]4SC[C@]5(N[C@H](CO)Cc6c5oc5ccccc65)C(=O)OC[C@@H](c5c6c(c(C)c(OC(C)=O)c54)OCO6)N3[C@@H](C#N)[C@H](C2)N1C [Compound 38-S]
[1]
  GI50: 8.05 nM
  TGI: 8.55E−09 Molar
  CC50: 9.44 nM
[2]
  GI50: 4.53 nM
  TGI: 7.05E−09 Molar
  CC50: > 126 nM
[3]
  GI50: 2.52 nM
  TGI: 4.28E−09 Molar
  CC50: 7.8 nM
[4]
  GI50: 5.03 nM
  TGI: 8.18E−09 Molar
  CC50: 15.1 nM
